Data: ChEMBL document CHEMBL1121396, “10,10-Difluoro-13-dehydroprostacyclin: a chemically and metabolically stabilized potent prostacyclin” (J Med Chem, 1980)

Experiments:
[1] = Tested for effect to cause relaxation of […] mesenteric artery previously contracted by PGF2-alpha; type: functional
[2] = Tested for effect to cause relaxation of bovine coronary artery; type: functional, tissue-based, Bos taurus

| EC50 [1] | EC50 [2] | Compound |
| --- | --- | --- |
| 2.3 nM | 8.5 nM | CCCCC[C@H](O)C#CC1C2C/C(=C\CCCC(=O)O)OC2C(F)(F)C1O (some centres undefined) |
| 3.3 nM | 28 nM | CCCCC[C@H](O)/C=C/[C@@H]1[C@H]2C/C(=C/CCCC(=O)O)O[C@H]2C[C@H]1O [EPOPROSTENOL] |
